Results taken from ChEMBL document CHEMBL1129673, “Antitumor activity of the R- and S-enantiomers of RS-2-[[hydroxy[[2-[ (octadecyloxy)methyl]tetrahydrofuran-2-yl]methoxy]-phosphinyl]oxy]-N, N,N,-trimethylethylaminium hydroxide inner salt” (1996).

How the values were obtained:
[1] = test system: Mus musculus; test: Antitumor activity against mouse macrophages after day 21 at dose 2.50 mg/kg by peroral administration; assay type: functional; conditions: dose 2.5 mg/kg; route oral
[2] = test system: Mus musculus; test: Antitumor activity against mouse macrophages after day 14 at dose 2.50 mg/kg by peroral administration; assay type: functional; conditions: dose 2.5 mg/kg; route oral
[3] = test system: Mus musculus; test: Mouse survived after 28 days at 2.5 mg/kg; 3/10; assay type: functional
[4] = test system: Mus musculus; test: Antitumor activity against mouse macrophages after day 7 at dose 2.50 mg/kg by peroral administration; assay type: functional; conditions: dose 2.5 mg/kg; route oral
[5] = test system: Mus musculus; test: Antitumor activity against mouse macrophages after day 28 at dose 2.50 mg/kg by peroral administration; assay type: functional; conditions: dose 2.5 mg/kg; route oral
[6] = test system: Mus musculus; test: Mouse survived after 28 days at 2.5 mg/kg; 8/10; assay type: functional
[7] = test system: YAC-1; test: Antitumor activity against YAC-1 tumor cells at concentration 1 ug/mL and at 72 hr using direct cytotoxicity assay.; assay type: functional, Mus musculus
[8] = Antitumor activity against Abelson-8.1 cells at concentration 1 ug/mL and at 72 hr using Activated Macrophage Cytotoxicity assay.; assay type: functional, Mus musculus
[9] = Antitumor activity against Abelson-8.1 cells at concentration 3 ug/mL and at 72 hr using Activated Macrophage Cytotoxicity assay.; assay type: functional, Mus musculus
[10] = Antitumor activity against Abelson-8.1 cells at concentration 1 ug/mL and at 72 hr using direct cytotoxicity assay.; assay type: functional, Mus musculus
[11] = test system: Mus musculus; test: Antitumor activity against mouse macrophages after day 28 at dose 0.25 mg/kg by peroral administration; assay type: functional; conditions: route oral
[12] = Antitumor activity against Abelson-8.1 cells at concentration 5 ug/mL and at 72 hr using direct cytotoxicity assay.; assay type: functional, Mus musculus
[13] = test system: P815; test: Antitumor activity against P815 cells at concentration 3 ug/mL and at 72 hr using Activated Macrophage Cytotoxicity assay.; assay type: functional, Mus musculus
[14] = Antitumor activity against Abelson-8.1 cells at concentration 5 ug/mL and at 72 hr using Activated Macrophage Cytotoxicity assay.; assay type: functional, Mus musculus
[15] = test system: Mus musculus; test: Antitumor activity against mouse macrophages after day 21 at dose 0.25 mg/kg by peroral administration; assay type: functional; conditions: route oral
[16] = test system: L1210; test: Antitumor activity against L1210 cells at concentration 5 ug/mL and at 72 hr using direct cytotoxicity assay.; assay type: functional, Mus musculus
[17] = test system: P815; test: Antitumor activity against P815 cells at concentration 3 ug/mL and at 72 hr using direct cytotoxicity assay.; assay type: functional, Mus musculus
[18] = test system: P815; test: Antitumor activity against P815 cells at concentration 1 ug/mL and at 72 hr using direct cytotoxicity assay.; assay type: functional, Mus musculus
[19] = test system: YAC-1; test: Antitumor activity against YAC-1 tumor cells at concentration 1 ug/mL and at 72 hr using Activated Macrophage Cytotoxicity assay.; assay type: functional, Mus musculus
[20] = test system: L1210; test: Antitumor activity against L1210 cells at concentration 1 ug/mL and at 72 hr using Activated Macrophage Cytotoxicity assay.; assay type: functional, Mus musculus
[21] = test system: L1210; test: Antitumor activity against L1210 cells at concentration 1 ug/mL and at 72 hr using direct cytotoxicity assay.; assay type: functional, Mus musculus
[22] = test system: L1210; test: Antitumor activity against L1210 cells at concentration 3 ug/mL using Activated Macrophage Cytotoxicity assay.; assay type: functional, Mus musculus
[23] = test system: Mus musculus; test: Antitumor activity against mouse macrophages after day 14 at dose 0.25 mg/kg by peroral administration; assay type: functional; conditions: route oral
[24] = test system: YAC-1; test: Antitumor activity against YAC-1 tumor cells at concentration 5 ug/mL and at 72 hr using Activated Macrophage Cytotoxicity assay.; assay type: functional, Mus musculus
[25] = test system: L1210; test: Antitumor activity against L1210 cells at concentration 5 ug/mL and at 72 hr and at 72 hr using Activated Macrophage Cytotoxicity assay.; assay type: functional, Mus musculus
[26] = test system: Mus musculus; test: Antitumor activity against mouse macrophages after day 7 at dose 0.25 mg/kg by peroral administration; assay type: functional; conditions: route oral
[27] = test system: YAC-1; test: Antitumor activity against YAC-1 tumor cells at concentration 3 ug/mL and at 72 hr using direct cytotoxicity assay.; assay type: functional, Mus musculus
[28] = test system: P815; test: Antitumor activity against P815 cells at concentration 1 ug/mL and at 72 hr using Activated Macrophage Cytotoxicity assay.; assay type: functional, Mus musculus
[29] = test system: P815; test: Antitumor activity against P815 cells at concentration 5 ug/mL and at 72 hr using Activated Macrophage Cytotoxicity assay.; assay type: functional, Mus musculus
[30] = Antitumor activity against Abelson-8.1 cells at concentration 3 ug/mL and at 72 hr using direct cytotoxicity assay.; assay type: functional, Mus musculus
[31] = test system: Mus musculus; test: Mouse survived after 28 days at 2.5 mg/kg; 6/10; assay type: functional
[32] = test system: L1210; test: Antitumor activity against L1210 cells at concentration 3 ug/mL and at 72 hr using direct cytotoxicity assay.; assay type: functional, Mus musculus
[33] = test system: P815; test: Antitumor activity against P815 cells at concentration 5 ug/mL and at 72 hr using direct cytotoxicity assay.; assay type: functional, Mus musculus
[34] = test system: Mus musculus; test: Mouse survived after 28 days at 0.25 mg/kg; 3/10; assay type: functional
[35] = test system: YAC-1; test: Antitumor activity against YAC-1 tumor cells at concentration 5 ug/mL and at 72 hr using direct cytotoxicity assay.; assay type: functional, Mus musculus
[36] = test system: YAC-1; test: Antitumor activity against YAC-1 tumor cells at concentration 3 ug/mL and at 72 hr using Activated Macrophage Cytotoxicity assay.; assay type: functional, Mus musculus
[37] = test system: L1210; test: Antitumor activity against L1210 cells at concentration 5 ug/mL and at 72 hr using Activated Macrophage Cytotoxicity assay.; assay type: functional, Mus musculus
[38] = test system: L1210; test: Antitumor activity against L1210 cells at concentration 3 ug/mL and at 72 hr using Activated Macrophage Cytotoxicity assay.; assay type: functional, Mus musculus
[39] = test system: Mus musculus; test: Mouse survived after 28 days at 0.25 mg/kg; 2/10; assay type: functional
[40] = test system: Mus musculus; test: Mouse survived after 28 days at 0.25 mg/kg; 8/10; assay type: functional

Molecule `CCCCCCCCCCCCCCCCCCOC[C@@]1(COP(=O)([O-])OCC[N+](C)(C)C)CCCO1` has a Control [1] of 21%, a Control [2] of 53% and a Survivors [3] of 3. The Control [4] was 85% and the Control [5] was 32%.

`CCCCCCCCCCCCCCCCCCOC[C@]1(COP(=O)([O-])OCC[N+](C)(C)C)CCCO1` gave a Control [1] of 8%, a Control [2] of 28% and a Survivors [6] of 8. For the same molecule, the Control [4] was 70% and the Control [5] was 13%.

`CCCCCCCCCCCCCCCCCCOCC1(COP(=O)([O-])OCC[N+](C)(C)C)CCCO1` (racemic; 5) showed a Viable cells [7] of 81%, a Viable cells [8] of 0.4% and a Control [1] of 14%. For the same molecule, the Viable cells [9] was 0.2%, the Viable cells [10] was 32% and the Control [11] was 32%. The Viable cells [12] was 2%, the Viable cells [13] was 0.7% and the Control [2] was 38%. The Viable cells [14] was 0.1%, the Control [15] was 20% and the Viable cells [16] was 8.6%. It also gave a Viable cells [17] of 13%, a Viable cells [18] of 60% and a Viable cells [19] of 16%. For the same molecule, the Viable cells [20] was 9.4%, the Viable cells [21] was 100% and the Viable cells [22] was 1.6%. The Control [23] was 47%, the Viable cells [24] was 1.2% and the Viable cells [25] was 0.9%. It also gave a Control [26] of 82%, a Viable cells [27] of 26% and a Viable cells [28] of 3.4%. The Viable cells [29] was 0.6%, the Viable cells [30] was 2.6% and the Survivors [31] was 6. The Viable cells [32] was 20%, the Viable cells [33] was 5.3% and the Survivors [34] was 3. The Viable cells [35] was 8.9%, the Control [4] was 76% and the Viable cells [36] was 2.5%. The Control [5] was 21%.

Molecule `CCCCCCCCCCCCCCCCCCOCC1(COP(=O)([O-])OCC[N+](C)(C)C)CCCO1` (racemic; 8) has a Viable cells [7] of 92%, a Viable cells [37] of 1.1% and a Viable cells [8] of 0.5%. It also gave a Viable cells [10] of 71%, a Control [11] of 37% and a Viable cells [12] of 4.6%. The Viable cells [13] was 1.8%, the Viable cells [14] was 0.2% and the Viable cells [38] was 1.4%. It also gave a Control [15] of 21%, a Viable cells [16] of 13% and a Viable cells [17] of 20%. The Viable cells [18] was 68%, the Viable cells [20] was 5.3% and the Viable cells [21] was 84%. It also gave a Control [23] of 52%, a Control [26] of 90% and a Viable cells [27] of 14%. For the same molecule, the Viable cells [28] was 3.1%, the Survivors [39] was 2 and the Viable cells [29] was 1.3%. It also gave a Viable cells [30] of 6.8%, a Viable cells [32] of 24% and a Viable cells [33] of 2.8%. For the same molecule, the Viable cells [35] was 4.5% and the Viable cells [36] was 1.6%.

In the case of `CCCCCCCCCCCCCCCCCCOCC1(COP(=O)([O-])OCC[N+](C)(C)C)CCCO1` (racemic; 9), the Viable cells [7] is reported as 60%, the Survivors [40] is reported as 8 and the Viable cells [37] is reported as 0.2%. For the same molecule, the Viable cells [8] was 0.8%, the Viable cells [9] was 0.3% and the Viable cells [10] was 8.6%. The Control [11] was 11%, the Viable cells [12] was 1.8% and the Viable cells [13] was 1.1%. For the same molecule, the Viable cells [14] was 0.4%, the Control [15] was 6% and the Viable cells [16] was 3.2%. For the same molecule, the Viable cells [17] was 7%, the Viable cells [18] was 16% and the Viable cells [19] was 11%. It also gave a Viable cells [20] of 3.4%, a Viable cells [21] of 55% and a Viable cells [22] of 0.6%. For the same molecule, the Control [23] was 19%, the Viable cells [24] was 0.9% and the Control [26] was 66%. The Viable cells [27] was 22%, the Viable cells [28] was 2.8% and the Viable cells [29] was 0.3%. For the same molecule, the Viable cells [30] was 2.1%, the Viable cells [32] was 7.7% and the Viable cells [33] was 2.6%. For the same molecule, the Viable cells [35] was 9% and the Viable cells [36] was 2.3%.
